Results as given in patent US8901118B2, “Compounds and methods for kinase modulation, and indications therefor” (Plexxikon Inc., priority 2010, dated 2014).

Experiments:
[1] = Relative solubility by turbidity in aqueous buffers (pH 1.5, 4.5, 6.8, 7.4); assay type: physicochemical; details: for turbidity threshold (L, M, H) 1.4: pH 1.5 (SGF); for turbidity threshold (L, M, H) 4.5: pH 4.5 (SIF); for turbidity threshold (L, M, H) 6.8: pH 6.8 (SIF); for turbidity threshold (L, M, H) 7.4: pH 7.4 (HEPES)
Method in brief: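 Twofold DMSO dilutions of a 25 mM stock were spiked into SGF (0.5M NaCl, pH 1.5), SIF (0.05M NaH2PO4, pH 4.5 and 6.8) or HEPES buffer (10 mM HEPES, 150 mM NaCl, pH 7.4). Absorbance was read at 490, 535 and 650 nm. The endpoint is the concentration crossing O.D. 0.01, averaged across wavelengths.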

[2] = system: Osteoclast precursor cells; assay: Osteoclast differentiation assay (acid phosphatase readout); assay type: cell-based
Method: Further, an osteoclast differentiation assay is used to assess the efficacy of Fms inhibitors for treating bone disease such as osteoarthritis. On day 0, Osteoclast Medium BulletKit (Lonza catalog #PT-8001, containing Media, FBS, L-Glutamine, PenStrep, RANKL, and M-CSF) media is thawed and the FBS, L-glutamine and PenStrep from the kit is added to 100 mL of Osteoclast Precursor Basal medium to provide the Osteoclast Precursor Growth Medium (OPGM). This is warmed to 37° C. Osteoclast precursor cells (Lonza catalog #2T-110) frozen in cryovial are warmed to 37° C. and transferred to a 50 mL conical tube. The cryovial is rinsed with OPGM and added dropwise to the conical tube of cells with swirling, then the volume is adjusted to 20-30 mL with addition of OPGM. The cells are centrifuged at 200×g for 15 minutes at room temperature and all but approximately 3 mL of supernatant is removed to a new conical tube. The cells are suspended in the remaining supernatant and the volume is adjusted to 10-15 mL with OPGM added dropwise with swirling. The cells are centrifuged at 200×g for 15 minutes at room temperature and all but approximately 1 mL of supernatant is removed. The cells are resuspended in the remaining supernatant, counted, and the volume adjusted with an appropriate amount of OPGM to provide approximately 1×10^5 cells/mL. A 0.1 mL aliquot of cells is added to each well of a 96-well plate. Compound to be tested is prepared in DMSO for plating at a high concentration of 2.5 mM, with 8 point 1:3 serial dilutions. A 1 μL aliquot of each compound dilution is added to a 96 well v-bottom polypropylene plate and 0.124 mL of OPGM is added to the compound. Then 50 μL at of the compound in OPGM is added to the osteoclast precursor cells in 96-well plate (providing highest test concentration of 5 μM). RANKL (2 μg) from the BulletKit is reconstituted in 1 mL of OPGM, then vortexed and centrifuged briefly. A 792 μL at aliquot of RANKL is added to 6 mL of OPGM and 50 μL at is added to low control wells. Then 76.6 μL M-CSF (10 μg/mL) from the BulletKit is added to the remaining 5.8 mL of OPGM/RANKL solution (4×RANKL/M-CSF/OPGM). A 50 μL at aliquot of this is added to the remaining wells, and the remainder is stored at 4° C. for later use. The plate is incubated at 37° C. for 6 days, then the remaining OPGM/RANKL/M-CSF solution is warmed to 37° C. The remaining approximately 198 μL is combined with 6 mL of OPGM. The media is aspirated from the osteoclast wells and 100 μL of RANKL/OPGM is added to the low controls. The remaining RANKL/OPGM is combined with the approximately 18.5 μL of remaining M-CSF. The remaining 4×RANKL/M-CSF/OPGM from day 0 is diluted to 1× and combined with the freshly prepared solution. A 0.1 mL aliquot of this is added to each osteoclast well and incubated for 37° C. for 1 day. The Acid Phosphatase kit (Cayman Chemical catalog #10008051) is warmed to room temperature. The assay buffer is diluted 5 mL with 45 mL of water. For each plate, two substrate tablets are dissolved in 4.5 mL of the assay buffer, mixing by vortex to break up the tablet. Stop solution is diluted 12 mL with 36 mL of water. In a tissue culture hood, 20 μL of each osteoclast well supernatant is transferred to a 96 well plate. A 30 μL aliquot of the substrate solution is added to each well and incubated at 37° C. for 20 minutes, then added 100 μL stop solution to each well. The absorbance of each well is read at 405 nm on Safire plate reader. The absorbance reading is plotted vs. concentration to provide the IC50 for each compound.

SMILES | IC50 [2] [nM] | turbidity threshold (L, M, H) 1.4 [1] | turbidity threshold (L, M, H) 4.5 [1] | turbidity threshold (L, M, H) 6.8 [1] | turbidity threshold (L, M, H) 7.4 [1]
COc1ccc(Nc2ccc(Cc3c[nH]c4ncnc(OC)c34)c(F)n2)cn1 [Compound P-4001, [6-Fluoro-5-(4-methoxy-7H-pyrrolo[2,3-d]pyrimidin-5-ylmethyl)-pyridin-2-yl]-(6-methoxy-pyridin-3-yl)-amine] | < 100 | M (moderate solubility if the threshold concentration is 31.3 μM to 250 μM) | M (moderate solubility if the threshold concentration is 31.3 μM to 250 μM) | M (moderate solubility if the threshold concentration is 31.3 μM to 250 μM) | M (moderate solubility if the threshold concentration is 31.3 μM to 250 μM)
COc1ncnc2[nH]cc(Cc3ccc(Nc4ccc(C5CC5)nc4)nc3F)c12 [Compound P-4004, (6-Cyclopropyl-pyridin-3-yl)-[6-fluoro-5-(4-methoxy-7H-pyrrolo[2,3-d]pyrimidin-5-ylmethyl)-pyridin-2-yl]-amine] | < 100 | M (moderate solubility if the threshold concentration is 31.3 μM to 250 μM) | M (moderate solubility if the threshold concentration is 31.3 μM to 250 μM) | L (low solubility if the threshold concentration is <31.3 μM) | L (low solubility if the threshold concentration is <31.3 μM)
CCn1cc(Nc2ccc(C(=O)c3c[nH]c4ncnc(C5CC5)c34)c(F)n2)cn1 [Compound P-4037, (4-Cyclopropyl-7H-pyrrolo[2,3-d]pyrimidin-5-yl)-[6-(1-ethyl-1H-pyrazol-4-ylamino)-2-fluoro-pyridin-3-yl]-methanone] |  | H (high solubility if the threshold concentration is >250 μm) | M (moderate solubility if the threshold concentration is 31.3 μM to 250 μM) | M (moderate solubility if the threshold concentration is 31.3 μM to 250 μM) | M (moderate solubility if the threshold concentration is 31.3 μM to 250 μM)
Fc1nc(NC2CCC(F)(F)CC2)ccc1Cc1c[nH]c2ncnc(NCC(F)(F)F)c12 [Compound P-4128, 5-[[6-[(4,4-difluorocyclohexyl)amino]-2-fluoro-3-pyridyl]methyl]-N-(2,2,2-trifluoroethyl)-7H-pyrrolo[2,3-d]pyrimidin-4-amine] |  | H (high solubility if the threshold concentration is >250 μm) | M (moderate solubility if the threshold concentration is 31.3 μM to 250 μM) | M (moderate solubility if the threshold concentration is 31.3 μM to 250 μM) | M (moderate solubility if the threshold concentration is 31.3 μM to 250 μM)
Fc1nc(NC2CCC(F)(F)CC2)ccc1Cc1c[nH]c2ncnc(NC3CC3)c12 [Compound P-4129, N-cyclopropyl-5-[[6-[(4,4-difluorocyclohexyl)amino]-2-fluoro-3-pyridyl]methyl]-7H-pyrrolo[2,3-d]pyrimidin-4-amine] |  | H (high solubility if the threshold concentration is >250 μm) | M (moderate solubility if the threshold concentration is 31.3 μM to 250 μM) | M (moderate solubility if the threshold concentration is 31.3 μM to 250 μM) | M (moderate solubility if the threshold concentration is 31.3 μM to 250 μM)
Fc1nc(Nc2ccc(C3CC3)nc2)ccc1Cc1c[nH]c2ncnc(NCC(F)(F)F)c12 [Compound P-4130, 5-[[6-[(6-cyclopropyl-3-pyridyl)amino]-2-fluoro-3-pyridyl]methyl]-N-(2,2,2-trifluoroethyl)-7H-pyrrolo[2,3-d]pyrimidin-4-amine] |  | H (high solubility if the threshold concentration is >250 μm) | M (moderate solubility if the threshold concentration is 31.3 μM to 250 μM) | M (moderate solubility if the threshold concentration is 31.3 μM to 250 μM) | M (moderate solubility if the threshold concentration is 31.3 μM to 250 μM)

More lines, main results first:

IC50 [2] [nM] | SMILES | turbidity threshold (L, M, H) 1.4 [1] | turbidity threshold (L, M, H) 4.5 [1] | turbidity threshold (L, M, H) 6.8 [1] | turbidity threshold (L, M, H) 7.4 [1]
< 100 | FC1(F)CCC(Nc2ncc(Cc3c[nH]c4ncc(Cl)cc34)cn2)CC1 [Compound P-3004] | H (high solubility if the threshold concentration is >250 μm) | L (low solubility if the threshold concentration is <31.3 μM) | L (low solubility if the threshold concentration is <31.3 μM) | L (low solubility if the threshold concentration is <31.3 μM)
< 100 | Clc1cnc2[nH]cc(Cc3cnc(NC4CCCCCC4)nc3)c2c1 [Compound P-3006, [5-(5-Chloro-1H-pyrrolo[2,3-b]pyridin-3-ylmethyl)-pyrimidin-2-yl]-cycloheptyl-amine] |  |  |  | 
< 100 | COc1ccc(Nc2ccc(Cc3c[nH]c4ncc(C)cc34)c(F)n2)cn1 [Compound P-3019, [6-fluoro-5-(5-methyl-1H-pyrrolo[2,3-b]pyridin-3-ylmethyl)-pyridin-2-yl]-(6-methoxy-pyridin-3-yl)-amine] | H (high solubility if the threshold concentration is >250 μm) | L (low solubility if the threshold concentration is <31.3 μM) | L (low solubility if the threshold concentration is <31.3 μM) | L (low solubility if the threshold concentration is <31.3 μM)
< 100 | CCOc1ccc(Nc2ncc(Cc3c[nH]c4ncc(C)cc34)cn2)cn1 [Compound P-3027, (6-Ethoxy-pyridin-3-yl)-[5-(5-methyl-1H-pyrrolo[2,3-b]pyridin-3-ylmethyl)-pyrimidin-2-yl]-amine] |  |  |  | 
< 100 | CCn1cc(Nc2ncc(Cc3c[nH]c4ncc(C)cc34)cn2)cn1 [Compound P-3036, (1-Ethyl-1H-pyrazol-4-yl)-[5-(5-methyl-1H-pyrrolo[2,3-b]pyridin-3-ylmethyl)-pyrimidin-2-yl]-amine] |  |  |  | 
< 100 | CCOc1ccc(Nc2ccc(Cc3c[nH]c4ncc(C)cc34)c(F)n2)cn1 [Compound P-3039, (6-ethoxy-pyridin-3-yl)-[6-fluoro-5-(5-methyl-1H-pyrrolo[2,3-b]pyridin-3-ylmethyl)-pyridin-2-yl]-amine] | H (high solubility if the threshold concentration is >250 μm) | M (moderate solubility if the threshold concentration is 31.3 μM to 250 μM) | M (moderate solubility if the threshold concentration is 31.3 μM to 250 μM) | M (moderate solubility if the threshold concentration is 31.3 μM to 250 μM)
< 100 | Cc1cnc2[nH]cc(Cc3ccc(Nc4ccc(C)nc4)nc3F)c2c1 [Compound P-3041, [6-Fluoro-5-(5-methyl-1H-pyrrolo[2,3-b]pyridin-3-ylmethyl)-pyridin-2-yl]-(6-methyl-pyridin-3-yl)-amine] |  |  |  | 
< 100 | Cc1ccc(Nc2ccc(Cc3c[nH]c4ncc(Cl)cc34)c(F)n2)cn1 [Compound P-3042, [5-(5-Chloro-1H-pyrrolo[2,3-b]pyridin-3-ylmethyl)-6-fluoro-pyridin-2-yl]-(6-methyl-pyridin-3-yl)-amine] |  |  |  | 
